Tests used:
[1] = test system: mélanocytes murins; assay: Melanin formation (melanogenesis stimulation) in cultured melanocytes, optical density at 475 nm; format: cell-based; settings: for Mélanine >g pour 10⁶ mélanocytes / A: concentration 10 >g/ml; for A: relative to β-MSH 2.10⁻⁸ M
From the text: (§1) Des mélanocytes murins sont cultivés sur un milieu approprié de manière classique.
Au jour J = 0, le produit à tester est introduit dans le milieu de culture. […]
(§2) On procède à la lecture de la densité optique sur un spectrophotomètre à 475 nm, ce qui permet d'évaluer la quantité de mélanine formée par comparaison à la densité optique d'une solution de mélanine de concentration connue.
(§3) On procède également au comptage des cellules, et on calcule le taux de mélanine formée par cellule, par rapport à une culture témoin, sans addition de produit à tester.
(§4) L'extrait Coleus 5B, selon l'exemple 5b est testé en comparaison avec de la forskoline seule, utilisée à concentration équivalente, et avec un témoin positif consistant en 10⁻⁸ mole de β-MSH. Ainsi, on introduit au jour J=0 dans le milieu de culture de la forskoline à la concentration de 0,1 >g/ml.
(§5) Dans une autre culture, on introduit l'extrait de Coleus à une concentration déterminée de façon que le taux en forskoline soit également d'environ 0,1 >g/ml.
(§6) L'activité A de la stimulation de la mélanogénèse par les produits selon l'invention est calculée par la formule suivante : [formula] dans laquelle les grandeurs q représentent les quantités de mélanine formée qp = culture recevant le produit à tester q₊ = culture recevant la βMSH qo = culture témoin ne recevant aucun produit.
(§7) Par ailleurs, on a testé dans des conditions analogues les extraits de Coleus 5A et 5C respectivement obtenus par extraction par un mélange éthanol-eau 80:20 et par le dichlorométhane. On notera toutefois qu'il a été pris comme témoin positif une culture recevant de la β-MSH à la concentration de 2.10⁻⁸M.
(§8) On opère comme à l'exemple 6. La combinaison IBMX plus extrait de Coleus est testée en comparaison avec l'IBMX et l'extrait de Coleus seul, de même qu'avec la β-MSH à la concentration de 2.10⁻⁸ M prise comme témoin positif.

[2] = test system: mélanocytes murins; assay: as above; format: cell-based; settings: for Activité A en % / A: 100 by definition; for Mélanine >g pour 10⁶ mélanocytes / A: β-MSH 2.10⁻⁸ M
From the text: as §1
Au jour J = 0, le produit à tester est introduit dans le milieu de culture.
Au jour J = 5, on prélève les cellules que l'on isole par centrifugation et on récupère le culot cellulaire que l'on dissout dans de la soude 0,5 N.
as §2, §3, §4, §5, §6, §7, §8

C=C[C@@]1(C)CC(=O)[C@]2(O)[C@@]3(C)[C@@H](O)CCC(C)(C)[C@@H]3[C@H](O)[C@H](OC(C)=O)[C@@]2(C)O1 [Forskoline, forskoline]
Mélanine formée en >g pour 10⁶ cellules ([1]; J = 5, forskoline 0,1 >g/ml, extract dosed to a forskoline level of about 0,1 >g/ml): 92 ± 3 >g pour 10⁶ cellules | Activité A en % ([1]; J = 5, forskoline level about 0,1 >g/ml, relative to β-MSH 10⁻⁸ mole = 100): 151%

CC(C)Cn1c(=O)n(C)c(=O)c2[nH]cnc21 [IBMX, 3-isobutyl-1-méthylxanthine]
Mélanine >g pour 10⁶ mélanocytes ([1]; J = 4): 64 +/-0 >g pour 10⁶ mélanocytes | A ([1]; J = 4): + 39 | Mélanine >g pour 10⁶ mélanocytes ([1]; J = 5): 103 +/-2 >g pour 10⁶ mélanocytes | A ([1]; J = 5): + 35

β-MSH
Activité A en % ([2]; 2.10⁻⁸M): 100% | Mélanine formée en >g pour 10⁶ cellules ([2]; 2.10⁻⁸M, Table II positive control): 179 ± 4 >g pour 10⁶ cellules | Mélanine >g pour 10⁶ mélanocytes ([2]; J = 4): 119 +/-7 >g pour 10⁶ mélanocytes | A ([2]; J = 4): + 100 | Activité A en % ([2]; J = 5, 10⁻⁸ mole de β-MSH): 100% | Mélanine formée en >g pour 10⁶ cellules ([2]; J = 5, positive control 10⁻⁸ mole de β-MSH): 70 >g pour 10⁶ cellules | Mélanine >g pour 10⁶ mélanocytes ([2]; J = 5): 200 +/-2 >g pour 10⁶ mélanocytes | A ([2]; J = 5): + 100

— EP0486595B1, “Use of a coleus extract for skin pigmentation” (LVMH RECHERCHE, priority 1989, dated 1991)
